Converted amounts (≈) assume the structure as drawn.
Columns and labels:
EA + ED28-digoxigenin = assay: Kinetic properties of substrates with EA + ED28-digoxigenin; format: biochemical; details: for Km / Vm Ratio to ONPG: no antibodies; for Km: four or five substrate concentrations; for Vm Ratio to ONPG / Turnover % ONPG: relative to ONPG
Experimental: (§1) The ability of the subject compounds to act as substrates for β-galactosidase and ED28-digoxigenin+EA was measured and compared with the results obtained with ONPG. ED28-digoxigenin+EA are a β-galactosidase α fragment-digoxigenin conjugate and the α complementation acceptor, respectively. ED28-digoxigenin consists of β-galactosidase amino acids 1-46, with cysteines at positions 1 and 46, and digoxgenin conjugated to the cysteines. Assays involving ED and EA are described in greater detail in U.S. Pat. No. 4,708,929. E28-digoxigenin and EA are usually components of a CEDIA™ assay; however, in this set of experiments, antibodies are not present. Four or five substrate concentrations were used to obtain the results. The turnover figures are given for EA+ED28-digoxigenin, not β-galactosidase.

[1] = Absorbance wavelength maximum and molar extinction coefficient of substrate and reaction product; format: physicochemical; details: for Product λmax / Product ε: reaction product; for Product ε / Substrate ε: molar extinction coefficient
Text: (§2) Table 1 gives the absorbance wavelength maximum (λmax) for the substrate and the reaction product, the molar extinction coefficient ε for the substrate and the reaction product, the solubility, and the spontaneous hydrolysis rate of the new substrates (stability). ONPG, the standard β-galactosidase substrate, is listed for comparision.

β-galactosidase [2] = assay: CEDIA T3 assay with new substrates; format: biochemical; details: for % Open / % Inhib / High calib % Mod / High calib % Net: T3 assay, relative to OCNPG, [Substrate]/Km: DNPG 3.3x, m-CN-NPG 4.1x, NGPG 2.0x; for % Open: absence of antibody; for % Inhib: inhibitory antibody; for High calib % Mod / High calib % Net: saturating analyte
Text: (§3) β-galactosidase-analyte conjugates may be used in a variety of diagnostic assays. The subject compounds may be used in conjunction with these assays. Such assays may be used to determine the presence and/or concentration of various compounds, including specific proteins, carbohydrates, and polynucleotides. The assays may be heterogenous, including ELISA assays. In particular the subject compounds may be employed in CEDIA™ assays. CEDIA™ assays measure the amount of an analyte by means of the ability of the analyte to affect the observed enzyme activity when employing an anti-analyte antibody binding reaction to a β-galactosidase α complementing fragment conjugated to analyte or cross reactive compound. In the absence of free analyte, the observed β-galactosidase activity is lower. Thus in CEDIA™ assays β-galactosidase activity increases as the amount of analyte increases. CEDIA™ assays make use of the α complementation phenomenon between ED and EA as described in detail in U.S. Pat. No. 4,708,929.
(§4) The ability of the new substrates to function in CEDIA™ assays was tested. All values are relative to reaction rates using OCNPG (o-chloro-nitrophenyl-β-D-galactopyranoside). […] CEDIA™ assays for T3 (the thyroid hormone, triiodothyronine), digoxin, and folate were performed.
(§5) The terms in table 3 are defined as follows. [Substrate]/Km is the ratio of the concentation of substrate used in the assay to the Km of the enzyme for that substrate. The %open, %inhibition, %mod, and %net figures are all given relative to the results obtained with OCNPG.
(§6) %Open is the reaction rate in the absence of antibody. The figure given in table 3 is the reaction rate relative to the reaction rate obtained with OCNPG.
(§7) %Inhibition is defined as the difference between the reaction rate rate in the absence of antibody and the reaction rate in the presence of the inhibitory antibody found in the CEDIA™ assays, divided by the reaction rate in the absence of antibody. The figures given in table 3 are relative to the % inhibition figure obtained with OCNPG as substrate.
(§8) %Net is defined as the difference between the reaction rate of a CEDIA™ assay using the test substrate in the absence of analyte and presence of antibody and the same reaction in the presence of a saturating amount of analyte (i.e. maximum attainable reaction rate) and presence of antibody, divided by the difference between the reaction rate using OCNPG in the absence of analyte and presence of antibody, and the reaction rate with OCNPG using a saturating amount of analyte and presence of antibody.
(§9) %Mod is defined as the difference between the reaction rate of a CEDIA™ assay in the absence of analyte and presence of antibody and the same reaction in the presence of a saturating amount of analyte (i.e., maximum attainable reaction rate) and presence of antibody, divided by the same figure obtained for the reaction rate in the presence of a saturating amount analyte. The greater the %mod, the greater the range of analyte concentrations over which the assay will be effective. The figure given in Table 3 is the mod figure obtained for the new subtrate, divided by the %mod figure divided %mod figure obtained for OCNPG.

β-galactosidase [3] = assay: CEDIA digoxin assay with new substrates; format: biochemical; details: relative to OCNPG, [Substrate]/Km 4.0x; for % Open: absence of antibody; for % Inhib: inhibitory antibody; for High calib % Mod / High calib % Net: saturating analyte
Text: as §3, §4, §5, §6, §7, §8, §9

β-galactosidase [4] = assay: CEDIA folate assay with new substrates; format: biochemical; details: relative to OCNPG, [Substrate]/Km: DNPG 3.2x, m-CN-NPG 2.5x, NGPG 3.2x; for % Open: absence of antibody; for % Inhib: inhibitory antibody; for High calib % Mod / High calib % Net: saturating analyte
Text: as §3, §4, §5, §6, §7, §8, §9

[5] = Spontaneous hydrolysis rate of substrates (stability); format: physicochemical; details: room temperature; normalized to 10 μg/ml starting concentration of substrate
Experimental: as §2
*Hydrolysis is measured at room temperature. Results are normalized to 10
μg/ml starting concentration of substrate.

Solubility of substrates = format: physicochemical
Text: as §2

β-galactosidase [6] = molecular target: β-galactosidase (Escherichia coli, UniProt P00722); assay: Kinetic properties of substrates with β-galactosidase; format: biochemical; details: for Vm Ratio to ONPG: relative to ONPG; for Km: four or five substrate concentrations
Experimental: as §1

β-galactosidase [7] = assay: CEDIA assays (T3, digoxin and folate), overall; format: biochemical
Text: as §3, §4
The terms in table 3 are defined as follows. […]

Chain of β-galactosidase (Escherichia coli, UniProt P00722) (P00722 2-1024): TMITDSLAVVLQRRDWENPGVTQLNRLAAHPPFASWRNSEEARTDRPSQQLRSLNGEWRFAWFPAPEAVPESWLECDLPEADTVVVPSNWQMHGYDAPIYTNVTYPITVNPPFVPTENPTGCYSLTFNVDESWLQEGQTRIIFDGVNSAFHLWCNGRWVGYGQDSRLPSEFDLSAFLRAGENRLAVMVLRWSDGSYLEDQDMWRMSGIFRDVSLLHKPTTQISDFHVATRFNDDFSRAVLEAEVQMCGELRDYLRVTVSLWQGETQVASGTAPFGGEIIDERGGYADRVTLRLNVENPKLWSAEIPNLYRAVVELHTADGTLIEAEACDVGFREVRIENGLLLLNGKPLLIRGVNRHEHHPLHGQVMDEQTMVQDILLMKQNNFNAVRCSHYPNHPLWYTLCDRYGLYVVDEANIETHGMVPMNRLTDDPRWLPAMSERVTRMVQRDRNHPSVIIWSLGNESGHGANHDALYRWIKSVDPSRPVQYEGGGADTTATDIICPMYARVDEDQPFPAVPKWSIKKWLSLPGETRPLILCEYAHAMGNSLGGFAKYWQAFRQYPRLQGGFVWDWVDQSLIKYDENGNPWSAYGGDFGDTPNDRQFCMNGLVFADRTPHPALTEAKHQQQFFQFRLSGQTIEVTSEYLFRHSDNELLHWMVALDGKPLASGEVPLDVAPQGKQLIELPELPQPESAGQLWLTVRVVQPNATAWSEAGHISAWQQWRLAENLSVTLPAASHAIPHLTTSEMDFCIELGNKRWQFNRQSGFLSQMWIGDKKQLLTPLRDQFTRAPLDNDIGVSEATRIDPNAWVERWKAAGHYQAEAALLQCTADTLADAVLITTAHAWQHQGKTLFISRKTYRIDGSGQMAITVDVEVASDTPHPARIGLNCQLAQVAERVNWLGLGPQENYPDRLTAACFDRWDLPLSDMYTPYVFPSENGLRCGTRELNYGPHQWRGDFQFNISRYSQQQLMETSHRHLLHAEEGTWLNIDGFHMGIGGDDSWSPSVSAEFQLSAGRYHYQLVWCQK

| SMILES | Km (EA + ED28-digoxigenin) [mg/mL] | Vm Ratio to ONPG (EA + ED28-digoxigenin) | Turnover % ONPG (EA + ED28-digoxigenin) [%] | Product λmax [1] [nm] | Product ε [1] [OD/M] | Substrate λmax [1] [nm] | Substrate ε [1] [OD/M] | % Open (β-galactosidase [2]) [%] | % Inhib (β-galactosidase [2]) [%] | High calib % Mod (β-galactosidase [2]) [%] | High calib % Net (β-galactosidase [2]) [%] | % Open (β-galactosidase [3]) [%] | % Inhib (β-galactosidase [3]) [%] | High calib % Mod (β-galactosidase [3]) [%] | High calib % Net (β-galactosidase [3]) [%] | % Open (β-galactosidase [4]) [%] | % Inhib (β-galactosidase [4]) [%] | Hydrolysis [5] [mA/Day] | Solubility (Solubility of substrates) [µg/mL] | Vm Ratio to ONPG (β-galactosidase [6]) | further results |
| --- | --- | --- | --- | --- | --- | --- | --- | --- | --- | --- | --- | --- | --- | --- | --- | --- | --- | --- | --- | --- | --- |
| O=[N+]([O-])c1ccc(O[C@@H]2O[C@H](CO)[C@H](O)[C@H](O)[C@H]2O)cc1[N+](=O)[O-] [3,4 DNPG, 3,4-Dinitrophenyl-β-D-galactopyranoside] | 0.19 | 2.8 | 70 | 400 | 12400 | 280 | 6000 | 73 | 93 | 88 | 71 | 92 | 74 | 85 | 72 | 72 | 77 | 6 | 3000 (≈ 8.66 mM) | 3.5 | High calib % Mod (β-galactosidase [4]): 76%; High calib % Net (β-galactosidase [4]): 58% |
| COc1cc([N+](=O)[O-])ccc1O[C@@H]1O[C@H](CO)[C@H](O)[C@H](O)[C@H]1O [NGPG, o-Methoxy-p-nitrophenyl-β-D-galactopyranoside] | 0.28 | 3.6 | 56 | 430 | 17600 | 298 | 7400 | 41 | 87 | 82 | 37 | 81 | 98 | 85 | 72 | 85 | 104 | 1 | 1000 (≈ 3.02 mM) | 3.7 | affinity compared with ONPG (in words) (EA + ED28-digoxigenin): somewhat lower affinity than ONPG; High calib % Mod (β-galactosidase [4]): 102%; High calib % Net (β-galactosidase [4]): 84%; affinity compared with ONPG (in words) (β-galactosidase [6]): somewhat lower affinity than ONPG |
| O=Cc1cc([N+](=O)[O-])ccc1O[C@@H]1O[C@H](CO)[C@H](O)[C@H](O)[C@H]1O [NSPG] | 0.14 | 3.0 | 54 | 382 | 16500 | 298 | 14900 |  |  |  |  |  |  |  |  |  |  | 19 | < 40000 | 3.2 | solubility (in words) (Solubility of substrates): high aqueous solubility; Km (β-galactosidase [6]): 334 µM |
| O=[N+]([O-])c1ccccc1O[C@@H]1O[C@H](CO)[C@H](O)[C@H](O)[C@H]1O [ONPG, o-nitrophenyl-β-D-galactopyranoside, reference compound] | 0.15 | 1.0 | 100 | 414 | 3000 | 315 | 2000 |  |  |  |  |  |  |  |  |  |  | 0.4 | 10000 (≈ 33.2 mM) | 1.0 | signal in CEDIA assays (in words) (β-galactosidase [7]): exceptionally weak signal; Km (β-galactosidase [6]): 266 µM |
| N#Cc1cc(O[C@@H]2O[C@H](CO)[C@H](O)[C@H](O)[C@H]2O)ccc1[N+](=O)[O-] [m-CN-NPG, m-Cyano-p-nitrophenyl-β-D-galactopyranoside] | 0.14 | 2.4 | 44 | 405 | 17000 | 308 | 9200 | 71 | 100 | 100 | 63 | 82 | 91 | 85 | 71 | 62 | 93 | 5 | < 8000 | 3.0 | T3 assay results on increasing substrate concentration (in words) (β-galactosidase [2]; substrate increased from 2.7×Km to 4.1×Km): improved; High calib % Mod (β-galactosidase [4]): 103%; High calib % Net (β-galactosidase [4]): 72% |

— patent publication US5444161A, “Substrates for β-galactosidase” (Microgenics Corporation, priority 1989, dated 1995)
